PMC3914206

What was measured:
Type in all cases: binding
Design in all cases: KINOMEscan: ABL1(F317L)-phosphorylated / KINOMEscan: ABL1(H396P)-nonphosphorylated / KINOMEscan: ABL1(H396P)-phosphorylated / KINOMEscan: ABL1(M351T)-phosphorylated / KINOMEscan: ABL1(T315I)-phosphorylated / KINOMEscan: ABL1-nonphosphorylated / KINOMEscan: ABL1-phosphorylated / KINOMEscan: ACVR2A / KINOMEscan: ACVR2B / KINOMEscan: ADCK3 / KINOMEscan: ADCK4 / KINOMEscan: AKT1 / KINOMEscan: AKT3 / KINOMEscan: ALK / KINOMEscan: ARK5 / KINOMEscan: AURKA / KINOMEscan: AURKC / KINOMEscan: BIKE / KINOMEscan: BMPR1A / KINOMEscan: BMPR1B / KINOMEscan: BMX / KINOMEscan: BRK / KINOMEscan: BRSK1 / KINOMEscan: BRSK2 / KINOMEscan: CAMK1 / KINOMEscan: CAMK1D / KINOMEscan: CAMK1G / KINOMEscan: CAMK2A / KINOMEscan: CAMK2B / KINOMEscan: AAK1 / KINOMEscan: CAMK2D / KINOMEscan: CAMK2G / KINOMEscan: ABL1(F317I)-nonphosphorylated / KINOMEscan: ABL1(F317I)-phosphorylated / KINOMEscan: ABL1(F317L)-nonphosphorylated: unit: % Ctrl
Details in all cases: Compound Concentration 10 µM
panel of 442 kinases [1] = biological target: T1, panel of 442 kinases (Homo sapiens, UniProt Q9BRS2)
T1 construct: purchased KINOMEscan
T1 sequence (Q9BRS2 1-568): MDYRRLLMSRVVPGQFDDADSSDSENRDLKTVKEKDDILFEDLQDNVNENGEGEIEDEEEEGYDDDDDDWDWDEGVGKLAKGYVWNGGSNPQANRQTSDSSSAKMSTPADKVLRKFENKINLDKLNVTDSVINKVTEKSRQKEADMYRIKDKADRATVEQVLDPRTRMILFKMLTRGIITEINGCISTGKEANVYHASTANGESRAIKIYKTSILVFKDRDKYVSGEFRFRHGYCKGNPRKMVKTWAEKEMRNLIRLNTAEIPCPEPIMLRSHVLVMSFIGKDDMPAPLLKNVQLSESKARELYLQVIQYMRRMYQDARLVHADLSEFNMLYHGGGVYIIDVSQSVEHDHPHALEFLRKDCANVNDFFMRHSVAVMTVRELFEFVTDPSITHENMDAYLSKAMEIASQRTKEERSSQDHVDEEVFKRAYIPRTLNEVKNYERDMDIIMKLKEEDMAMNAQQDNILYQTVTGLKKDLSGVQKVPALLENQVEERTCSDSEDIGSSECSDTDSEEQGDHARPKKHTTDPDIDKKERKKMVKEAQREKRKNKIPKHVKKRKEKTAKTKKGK
Text: (§1) We assessed the selectivity of members of this scaffold using the KINOMEscan methodology across a near comprehensive panel of 442 kinases [[18,27]].

panel of 442 kinases [2] = biological target: T2, panel of 442 kinases (Homo sapiens, UniProt P32298)
T2 construct: purchased KINOMEscan
T2 sequence (P32298 whole entry): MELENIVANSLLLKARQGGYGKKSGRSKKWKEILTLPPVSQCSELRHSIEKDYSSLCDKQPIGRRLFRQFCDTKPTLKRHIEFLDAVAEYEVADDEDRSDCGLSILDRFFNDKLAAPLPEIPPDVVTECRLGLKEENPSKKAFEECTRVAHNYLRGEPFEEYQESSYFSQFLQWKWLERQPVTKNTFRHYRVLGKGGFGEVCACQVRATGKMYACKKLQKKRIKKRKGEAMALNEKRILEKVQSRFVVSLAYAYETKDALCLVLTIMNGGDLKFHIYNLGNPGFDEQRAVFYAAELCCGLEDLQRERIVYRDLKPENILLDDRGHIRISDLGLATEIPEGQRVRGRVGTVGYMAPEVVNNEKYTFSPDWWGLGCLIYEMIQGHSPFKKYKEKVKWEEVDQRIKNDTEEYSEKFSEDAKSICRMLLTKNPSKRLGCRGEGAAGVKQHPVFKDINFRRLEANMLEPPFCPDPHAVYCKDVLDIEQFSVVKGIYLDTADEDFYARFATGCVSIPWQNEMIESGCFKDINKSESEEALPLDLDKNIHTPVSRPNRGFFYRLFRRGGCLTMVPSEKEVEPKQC
Text: as §1

panel of 442 kinases [3] = biological target: T3, panel of 442 kinases (Homo sapiens, UniProt O00238)
T3 construct: purchased KINOMEscan
T3 sequence (O00238 14-502): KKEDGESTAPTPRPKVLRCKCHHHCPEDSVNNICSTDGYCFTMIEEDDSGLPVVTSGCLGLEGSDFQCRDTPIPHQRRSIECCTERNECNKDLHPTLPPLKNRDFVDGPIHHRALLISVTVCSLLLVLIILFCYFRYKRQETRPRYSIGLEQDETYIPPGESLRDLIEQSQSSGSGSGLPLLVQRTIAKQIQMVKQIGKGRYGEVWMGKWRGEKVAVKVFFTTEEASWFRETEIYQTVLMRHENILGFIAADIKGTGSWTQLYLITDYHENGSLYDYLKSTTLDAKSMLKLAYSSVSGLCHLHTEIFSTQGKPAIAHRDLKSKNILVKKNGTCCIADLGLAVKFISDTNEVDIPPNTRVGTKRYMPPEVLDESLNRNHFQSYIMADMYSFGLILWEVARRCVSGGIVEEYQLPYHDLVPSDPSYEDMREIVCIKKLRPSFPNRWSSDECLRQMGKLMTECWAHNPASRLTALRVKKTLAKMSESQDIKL
Text: as §1

SMILES: COc1cc(C(=O)N2CCC(N3CCN(C)CC3)CC2)ccc1Nc1ncc2c(n1)N(C)c1ccccc1C(=O)N2C [15 (LRRK2-IN-1)]
- KINOMEscan: RIOK1 (panel of 442 kinases [1]): 100
- KINOMEscan: GRK4 (panel of 442 kinases [2]): 86
- KINOMEscan: BMPR1B (panel of 442 kinases [3]): 76

SMILES: COc1cc(C(=O)N2CCC(N3CCN(C)CC3)CC2)ccc1Nc1ncc2c(n1)N1CCc3cccc(c31)C(=O)N2C [Compound 24]
- KINOMEscan: BMPR1B (panel of 442 kinases [3]): 97

SMILES: COc1cc(C(=O)N2CCC(N3CCN(C)CC3)CC2)ccc1Nc1ncc2c(n1)N(C1CCCC1)c1ccccc1C(=O)N2C [Compound 25, 11-cyclopentyl-2-((2-methoxy-4-(4-(4-methylpiperazin-1-yl)piperidine-1-carbonyl)phenyl)amino)-5-methyl-5H-benzo[e]pyrimido[5,4-b][1,4]diazepin-6(11H)-one]
- KINOMEscan: RIOK1 (panel of 442 kinases [1]): 76
- KINOMEscan: GRK4 (panel of 442 kinases [2]): 98
- KINOMEscan: BMPR1B (panel of 442 kinases [3]): 98

SMILES: CCOc1cc(C(=O)N2CCC(N3CCN(C)CC3)CC2)ccc1Nc1ncc2c(n1)N(C1CCCC1)c1ccccc1C(=O)N2C [Compound 26]
- KINOMEscan: RIOK1 (panel of 442 kinases [1]): 100
- KINOMEscan: GRK4 (panel of 442 kinases [2]): 100
- KINOMEscan: BMPR1B (panel of 442 kinases [3]): 100
